Laboratory results from ChEMBL document CHEMBL3259580, “New compounds from acid hydrolyzed products of the fruits of Momordica charantia L. and their inhibitory activity against protein tyrosine phosphatas 1B” (Eur J Med Chem, 2014).

Assays:
[1] = target: T1, Tyrosine-protein phosphatase non-receptor type 1 (Homo sapiens) (UniProt P18031); assay: Inhibition of PTP1B (unknown origin) using para-nitro phenyl phosphate as substrate at 30 uM after 30 mins
T1 sequence (whole entry): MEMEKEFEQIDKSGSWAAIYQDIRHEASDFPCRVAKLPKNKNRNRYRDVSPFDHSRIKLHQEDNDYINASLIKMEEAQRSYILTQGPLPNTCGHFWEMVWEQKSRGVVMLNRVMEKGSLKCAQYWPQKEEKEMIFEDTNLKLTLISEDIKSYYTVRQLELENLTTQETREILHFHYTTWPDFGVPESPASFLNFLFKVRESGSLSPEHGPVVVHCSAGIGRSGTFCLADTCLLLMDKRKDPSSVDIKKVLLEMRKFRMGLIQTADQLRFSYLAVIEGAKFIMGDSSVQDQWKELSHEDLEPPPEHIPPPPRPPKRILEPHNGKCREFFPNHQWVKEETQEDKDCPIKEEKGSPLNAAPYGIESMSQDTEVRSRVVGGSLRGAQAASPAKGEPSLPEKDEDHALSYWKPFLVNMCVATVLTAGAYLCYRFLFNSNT

[2] = target: T1, Tyrosine-protein phosphatase non-receptor type 1 (Homo sapiens); assay: Inhibition of PTP1B (unknown origin) using para-nitro phenyl phosphate as substrate at 10 uM after 30 mins
[3] = target: Tyrosine-protein phosphatase non-receptor type 1 (Homo sapiens) (UniProt P18031); assay: Inhibition of PTP1B (unknown origin) using para-nitro phenyl phosphate as substrate at 20 uM after 30 mins

Molecule	inhibition [1] [%]	inhibition [2] [%]	inhibition [3] [%]
C[C@H](C/C=C/C(C)(C)O)[C@H]1CC[C@@]2(C)[C@@H]3C=C[C@@]45OC[C@]3(CC[C@]12C)[C@@H]4CC[C@H](O)C5(C)C	52	30	–
CO[C@@H]1O[C@]23C=C[C@@H]4[C@@]1(CC[C@]1(C)[C@@H]([C@H](C)C/C=C/C(C)(C)O)CC[C@@]41C)[C@@H]2CC[C@H](O)C3(C)C	–	-7	–
C=C(C)/C=C/C[C@@H](C)[C@H]1CC[C@@]2(C)[C@@H]3C=C[C@@]45O[C@@H](O)[C@]3(CC[C@]12C)[C@@H]4CC[C@H](O)C5(C)C	68	44	–
C=C(C)/C=C/C[C@@H](C)[C@H]1CC[C@@]2(C)[C@@H]3C=C[C@@]45O[C@@H](OC)[C@]3(CC[C@]12C)[C@@H]4CC[C@H](O)C5(C)C	60	41	–
CO[C@@H]1O[C@]23C=C[C@@H]4[C@@]1(CC[C@]1(C)[C@@H]([C@H](C)C[C@H](C=C(C)C)OC)CC[C@@]41C)[C@@H]2CC[C@H](O)C3(C)C	40	32	–
CO[C@@H]1O[C@@]23C=C[C@@H]4[C@]1(CC[C@@]1(C)[C@@H]([C@@H](C)C[C@H](C=C(C)C)OC)CC[C@]41C)[C@@H]2CC[C@H](O)C3(C)C	62	44	–
CO[C@H]1O[C@@]23C=C[C@@H]4[C@]1(CC[C@@]1(C)[C@@H]([C@@H](C)C[C@H](C=C(C)C)OC)CC[C@]41C)[C@@H]2CC[C@H](O)C3(C)C	77	57	–
SODIUM ORTHOVANAD	–	–	44
CO[C@H]1O[C@]23C=C[C@@H]4[C@@]1(CC[C@]1(C)[C@@H]([C@H](C)C[C@H](C=C(C)C)OC)CC[C@@]41C)[C@@H]2CC[C@H](O)C3(C)C	62	32	–
C[C@H](C/C=C/C(C)(C)O)[C@H]1CC[C@@]2(C)[C@@H]3[C@@H](O)C=C4[C@@H](CC[C@H](O)C4(C)C)[C@]3(C=O)CC[C@]12C	–	-5	–
CO[C@@H]1O[C@]23C=C[C@@H]4[C@@]1(CC[C@]1(C)[C@@H]([C@H](C)C/C=C/C(C)(C)OC)CC[C@@]41C)[C@@H]2CC[C@H](O)C3(C)C	37	22	–
